From paper PMC5448077, “Development of an orally available inhibitor of CLK1 for skipping a mutated dystrophin exon in Duchenne muscular dystrophy” (Scientific Reports, 2017)

How the values were obtained:
Experiment in all cases: biochemical
[1] = biological target: ALK (Homo sapiens, UniProt Q9UM73)
How it was run: (§1)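 Reactions at room temperature in HEPES buffer (20 mM, pH 7.5, 0.01% Triton X-100, 2 mM DTT) lasted 1 or 5 h depending on kinase, with substrate peptide and ATP-metal. Phosphorylation read by electrophoretic mobility shift or IMAP polarization; kinase activity computed as P/(P + S).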

[2] = biological target: T1, CDK5/p25 (Homo sapiens, UniProt Q00535)
T1 construct: p25
T1 sequence (Q00535 whole entry): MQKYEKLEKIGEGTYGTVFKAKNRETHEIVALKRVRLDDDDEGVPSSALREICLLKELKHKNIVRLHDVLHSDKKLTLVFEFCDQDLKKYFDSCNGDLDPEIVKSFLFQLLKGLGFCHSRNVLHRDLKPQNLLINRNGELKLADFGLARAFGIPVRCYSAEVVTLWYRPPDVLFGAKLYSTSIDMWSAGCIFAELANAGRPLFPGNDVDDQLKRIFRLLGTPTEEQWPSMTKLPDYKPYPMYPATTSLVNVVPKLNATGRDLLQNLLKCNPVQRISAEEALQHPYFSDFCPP
T1 sequence (Q15078 whole entry partner): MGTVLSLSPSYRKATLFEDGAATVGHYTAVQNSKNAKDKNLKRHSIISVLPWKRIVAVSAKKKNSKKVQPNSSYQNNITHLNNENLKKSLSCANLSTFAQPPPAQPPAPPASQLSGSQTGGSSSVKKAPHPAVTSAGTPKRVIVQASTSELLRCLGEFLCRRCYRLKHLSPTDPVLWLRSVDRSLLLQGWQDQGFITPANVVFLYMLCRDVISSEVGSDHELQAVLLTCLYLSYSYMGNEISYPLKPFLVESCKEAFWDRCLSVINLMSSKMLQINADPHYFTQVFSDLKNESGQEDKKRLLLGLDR
How it was run: as §1

[3] = biological target: CLK2 (Homo sapiens, UniProt P49760)
How it was run: as §1

[4] = biological target: CLK3 (Homo sapiens, UniProt P49761)
Sequence of CLK3 (P49761 whole entry): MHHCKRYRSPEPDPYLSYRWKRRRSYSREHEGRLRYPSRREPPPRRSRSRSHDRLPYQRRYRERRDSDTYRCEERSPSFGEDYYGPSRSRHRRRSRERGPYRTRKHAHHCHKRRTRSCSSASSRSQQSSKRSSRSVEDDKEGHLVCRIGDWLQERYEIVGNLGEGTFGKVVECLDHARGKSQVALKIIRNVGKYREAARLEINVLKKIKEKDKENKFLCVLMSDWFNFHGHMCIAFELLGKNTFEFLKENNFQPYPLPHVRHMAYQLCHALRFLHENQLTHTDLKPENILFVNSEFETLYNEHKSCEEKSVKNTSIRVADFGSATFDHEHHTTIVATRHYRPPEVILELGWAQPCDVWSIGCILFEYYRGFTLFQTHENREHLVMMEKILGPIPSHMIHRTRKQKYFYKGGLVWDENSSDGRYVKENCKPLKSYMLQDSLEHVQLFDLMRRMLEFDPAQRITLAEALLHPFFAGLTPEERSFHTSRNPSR
How it was run: as §1

[5] = biological target: EPHA4 (Homo sapiens, UniProt P54764)
How it was run: as §1

[6] = biological target: T2, Erk2 (Homo sapiens, UniProt P28482)
T2 construct: gene MAPK1
How it was run: as §1

[7] = biological target: T3, Erk5 (Homo sapiens, UniProt Q13164)
T3 construct: gene MAPK7
How it was run: as §1

[8] = biological target: T4, FAK (Homo sapiens, UniProt Q05397)
T4 construct: gene PTK2
How it was run: as §1

[9] = biological target: FLT3 (Homo sapiens, UniProt P36888)
How it was run: as §1

[10] = biological target: HCK (Homo sapiens, UniProt P08631)
Sequence of HCK (P08631 whole entry): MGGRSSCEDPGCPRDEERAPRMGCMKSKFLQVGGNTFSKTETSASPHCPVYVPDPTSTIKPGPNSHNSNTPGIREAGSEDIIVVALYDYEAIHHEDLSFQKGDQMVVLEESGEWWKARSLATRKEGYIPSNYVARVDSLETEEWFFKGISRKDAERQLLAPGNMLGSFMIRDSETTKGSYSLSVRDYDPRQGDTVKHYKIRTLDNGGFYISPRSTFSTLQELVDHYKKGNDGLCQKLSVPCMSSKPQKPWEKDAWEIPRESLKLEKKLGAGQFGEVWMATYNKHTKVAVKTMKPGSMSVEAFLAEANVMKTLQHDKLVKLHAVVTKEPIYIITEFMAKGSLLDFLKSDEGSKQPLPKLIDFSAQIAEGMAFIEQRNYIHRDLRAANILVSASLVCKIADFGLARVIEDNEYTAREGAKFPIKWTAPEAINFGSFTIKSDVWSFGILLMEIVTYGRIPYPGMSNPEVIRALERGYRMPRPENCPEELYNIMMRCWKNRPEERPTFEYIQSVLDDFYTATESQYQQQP
How it was run: as §1

[11] = biological target: HIPK1 (Homo sapiens, UniProt Q86Z02)
Sequence of HIPK1 (Q86Z02 whole entry): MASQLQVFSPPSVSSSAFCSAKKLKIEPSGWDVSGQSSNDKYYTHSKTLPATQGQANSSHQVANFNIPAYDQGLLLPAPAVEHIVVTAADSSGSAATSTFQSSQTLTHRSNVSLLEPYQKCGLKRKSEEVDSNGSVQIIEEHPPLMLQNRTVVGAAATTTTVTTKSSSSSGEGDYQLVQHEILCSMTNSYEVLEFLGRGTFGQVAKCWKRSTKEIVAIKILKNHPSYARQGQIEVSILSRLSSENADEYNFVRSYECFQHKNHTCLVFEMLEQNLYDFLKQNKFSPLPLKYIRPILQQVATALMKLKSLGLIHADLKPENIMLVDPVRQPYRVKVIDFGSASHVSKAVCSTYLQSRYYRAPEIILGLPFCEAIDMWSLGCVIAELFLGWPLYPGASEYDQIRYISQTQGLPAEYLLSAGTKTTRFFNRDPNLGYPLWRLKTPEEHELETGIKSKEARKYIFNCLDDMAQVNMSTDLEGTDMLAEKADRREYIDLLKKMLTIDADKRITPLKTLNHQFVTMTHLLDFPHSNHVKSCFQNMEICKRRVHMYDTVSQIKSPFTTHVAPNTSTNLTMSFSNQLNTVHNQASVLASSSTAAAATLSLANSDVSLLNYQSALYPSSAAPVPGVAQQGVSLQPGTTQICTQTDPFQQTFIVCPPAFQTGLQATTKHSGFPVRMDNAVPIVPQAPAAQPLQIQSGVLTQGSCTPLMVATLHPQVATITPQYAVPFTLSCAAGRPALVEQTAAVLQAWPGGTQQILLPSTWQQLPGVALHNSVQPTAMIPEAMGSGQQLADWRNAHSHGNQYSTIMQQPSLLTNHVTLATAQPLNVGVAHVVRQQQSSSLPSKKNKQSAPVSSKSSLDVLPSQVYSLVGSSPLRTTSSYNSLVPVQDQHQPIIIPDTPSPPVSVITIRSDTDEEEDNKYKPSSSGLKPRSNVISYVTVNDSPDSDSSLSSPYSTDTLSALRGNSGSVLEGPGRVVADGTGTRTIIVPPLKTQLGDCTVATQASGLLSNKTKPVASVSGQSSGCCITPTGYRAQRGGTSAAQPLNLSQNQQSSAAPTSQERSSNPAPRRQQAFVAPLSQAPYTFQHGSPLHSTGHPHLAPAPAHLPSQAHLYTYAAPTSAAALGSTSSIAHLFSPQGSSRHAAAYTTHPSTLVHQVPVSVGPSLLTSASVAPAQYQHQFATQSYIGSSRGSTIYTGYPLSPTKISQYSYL
How it was run: as §1

[12] = biological target: IGF1R (Homo sapiens, UniProt P08069)
How it was run: as §1

[13] = biological target: JAK2 (Homo sapiens, UniProt O60674)
How it was run: as §1

[14] = biological target: KIT(D816Y) (Homo sapiens, UniProt P10721, D816Y)
Sequence of KIT(D816Y) (P10721 whole entry D816Y): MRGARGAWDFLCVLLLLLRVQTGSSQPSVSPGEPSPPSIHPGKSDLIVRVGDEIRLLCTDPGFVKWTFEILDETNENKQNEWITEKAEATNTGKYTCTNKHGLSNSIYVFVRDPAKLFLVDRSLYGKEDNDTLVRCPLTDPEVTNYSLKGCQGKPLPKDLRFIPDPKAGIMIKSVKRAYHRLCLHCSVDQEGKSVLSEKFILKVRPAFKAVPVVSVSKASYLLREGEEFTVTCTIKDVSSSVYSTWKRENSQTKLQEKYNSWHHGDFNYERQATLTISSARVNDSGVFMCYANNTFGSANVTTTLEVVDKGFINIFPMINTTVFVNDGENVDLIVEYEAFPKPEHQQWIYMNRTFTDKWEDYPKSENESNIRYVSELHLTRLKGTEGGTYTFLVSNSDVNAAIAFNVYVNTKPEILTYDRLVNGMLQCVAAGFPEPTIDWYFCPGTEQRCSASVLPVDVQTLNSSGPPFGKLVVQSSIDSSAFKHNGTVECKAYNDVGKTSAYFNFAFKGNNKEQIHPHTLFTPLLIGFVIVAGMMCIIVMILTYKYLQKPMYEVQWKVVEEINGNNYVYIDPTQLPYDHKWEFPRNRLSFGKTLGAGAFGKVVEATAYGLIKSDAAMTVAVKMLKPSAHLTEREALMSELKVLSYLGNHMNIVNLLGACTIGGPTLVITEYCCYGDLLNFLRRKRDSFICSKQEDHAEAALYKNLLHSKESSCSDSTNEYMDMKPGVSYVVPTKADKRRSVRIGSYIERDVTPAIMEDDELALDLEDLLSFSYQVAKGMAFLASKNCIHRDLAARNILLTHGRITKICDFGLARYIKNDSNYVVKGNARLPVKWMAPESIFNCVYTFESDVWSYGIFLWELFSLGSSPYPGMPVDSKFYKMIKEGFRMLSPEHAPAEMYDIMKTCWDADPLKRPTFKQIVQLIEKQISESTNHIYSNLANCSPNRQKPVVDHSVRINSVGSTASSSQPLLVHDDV
How it was run: as §1

[15] = biological target: MELK (Homo sapiens, UniProt Q14680)
How it was run: as §1

[16] = biological target: NEK1 (Homo sapiens, UniProt Q96PY6)
How it was run: as §1

[17] = biological target: NEK2 (Homo sapiens, UniProt P51955)
How it was run: as §1

[18] = biological target: NEK4 (Homo sapiens, UniProt P51957)
How it was run: as §1

[19] = biological target: T5, PDGFRβ (Homo sapiens, UniProt P09619)
T5 construct: gene PDGFRB
How it was run: as §1

[20] = biological target: T6, PGK (Homo sapiens, UniProt Q13976)
T6 construct: gene PRKG1
How it was run: as §1

[21] = biological target: PIM2 (Homo sapiens, UniProt Q9P1W9)
How it was run: as §1

[22] = biological target: PIM3 (Homo sapiens, UniProt Q86V86)
How it was run: as §1

[23] = biological target: PRKX (Homo sapiens, UniProt P51817)
How it was run: as §1

[24] = biological target: RET(G691S) (Homo sapiens, UniProt P07949, G691S)
How it was run: as §1

[25] = biological target: SGK3 (Homo sapiens, UniProt Q96BR1)
Sequence of SGK3 (Q96BR1 whole entry): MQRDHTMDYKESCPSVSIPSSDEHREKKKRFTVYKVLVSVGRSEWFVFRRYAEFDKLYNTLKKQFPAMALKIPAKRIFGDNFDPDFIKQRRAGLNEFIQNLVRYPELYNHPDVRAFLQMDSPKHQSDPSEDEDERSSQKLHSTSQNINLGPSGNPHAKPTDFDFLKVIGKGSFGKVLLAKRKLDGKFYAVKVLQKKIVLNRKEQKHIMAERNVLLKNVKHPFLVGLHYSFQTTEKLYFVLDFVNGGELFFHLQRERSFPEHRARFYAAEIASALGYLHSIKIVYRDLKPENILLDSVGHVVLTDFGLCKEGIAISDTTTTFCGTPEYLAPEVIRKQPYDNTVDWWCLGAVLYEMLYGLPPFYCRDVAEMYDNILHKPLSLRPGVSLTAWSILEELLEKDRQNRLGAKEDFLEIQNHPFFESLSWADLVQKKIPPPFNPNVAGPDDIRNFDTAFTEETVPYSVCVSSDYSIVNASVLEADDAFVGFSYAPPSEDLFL
How it was run: as §1

[26] = biological target: T7, SRM (Homo sapiens, UniProt Q9H3Y6)
T7 construct: gene SRMS
How it was run: as §1

[27] = biological target: TAOK2 (Homo sapiens, UniProt Q9UL54)
How it was run: as §1

[28] = biological target: T8, TIE2 (Homo sapiens, UniProt Q02763)
T8 construct: gene TEK
How it was run: as §1

[29] = biological target: T9, TRKB (Homo sapiens, UniProt Q16620)
T9 construct: gene NTRK2
How it was run: as §1

[30] = biological target: T10, TSSK1 (Homo sapiens, UniProt Q9BXA7)
T10 construct: gene TSSK1B
T10 sequence (Q9BXA7 whole entry): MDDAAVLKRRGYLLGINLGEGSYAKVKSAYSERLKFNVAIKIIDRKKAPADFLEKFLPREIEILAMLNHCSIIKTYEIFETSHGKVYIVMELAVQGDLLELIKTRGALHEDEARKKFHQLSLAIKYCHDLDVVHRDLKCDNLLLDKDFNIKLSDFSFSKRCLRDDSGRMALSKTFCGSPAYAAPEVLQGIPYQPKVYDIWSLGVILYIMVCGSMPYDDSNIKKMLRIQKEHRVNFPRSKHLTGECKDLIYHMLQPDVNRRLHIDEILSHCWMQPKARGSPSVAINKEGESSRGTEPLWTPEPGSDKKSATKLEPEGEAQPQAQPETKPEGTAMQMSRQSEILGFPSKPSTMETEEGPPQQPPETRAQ
How it was run: as §1

[31] = biological target: TYRO3 (Homo sapiens, UniProt Q06418)
How it was run: as §1

[32] = biological target: T11, p38γ (Homo sapiens, UniProt P53778)
T11 construct: gene MAPK12
How it was run: as §1

## c1cc(-c2ccc3[nH]ncc3c2)ccn1 [TG693, 5-(4-pyridinyl)-1H-indazole]
[1]
  inhibition at 1 µM: 6.1%
[2]
  inhibition at 1 µM: 21.8%
[3]
  inhibition at 1 µM: 14.9%
[4]
  inhibition at 1 µM: 11.7%
[5]
  inhibition at 1 µM: 2.4%
[6]
  inhibition at 1 µM: -5.8%
[7]
  inhibition at 1 µM: 2.2%
[8]
  inhibition at 1 µM: 3.6%
[9]
  inhibition at 1 µM: 17.5%
[10]
  inhibition at 1 µM: -3%
[11]
  inhibition at 1 µM: -3.5%
[12]
  inhibition at 1 µM: 3.3%
[13]
  inhibition at 1 µM: 7.9%
[14]
  inhibition at 1 µM: -1.7%
[15]
  inhibition at 1 µM: 5.7%
[16]
  inhibition at 1 µM: -1.5%
[17]
  inhibition at 1 µM: -11.9%
[18]
  inhibition at 1 µM: -4.2%
[19]
  inhibition at 1 µM: 3%
[20]
  inhibition at 1 µM: 11%
[21]
  inhibition at 1 µM: -3.5%
[22]
  inhibition at 1 µM: 6.6%
[23]
  inhibition at 1 µM: 12.2%
[24]
  inhibition at 1 µM: 4.9%
[25]
  inhibition at 1 µM: -3.2%
[26]
  inhibition at 1 µM: 1.5%
[27]
  inhibition at 1 µM: 2%
[28]
  inhibition at 1 µM: 9.7%
[29]
  inhibition at 1 µM: 0.1%
[30]
  inhibition at 1 µM: 3%
[31]
  inhibition at 1 µM: 0.3%
[32]
  inhibition at 1 µM: 1.4%
